Entries after “also recorded” stand apart in the source; their conditions may differ.
What was measured:
wild-type tomato flowers = details: wild-type flowers treated with ethylene (FIG. 1: 10 ppm, 16 hrs)
Procedure: (§1) Flower clusters were cut from the plant, placed in a vial of water, and treated with 10 ppm ethylene for 16 hrs.
(§2) Preliminary work was conducted in tomato to test the efficacy of these approaches.

[1] = system: transgenic tomato flowers (EIN2 over-expression / co-suppression); details: transgenic flowers treated with ethylene (FIG. 1: 10 ppm, 16 hrs)
Procedure: as §1, §2

TCTR1 antisense plants = test: Inducible leaf abscission in TCTR1 antisense tomato plants; details: for rate of leaf abscission compared with EIN3 over-expressing plants: CTR1/TCTR1 antisense plants; for induction of leaf abscission: TCTR1 antisense under the three inducible promoters

Row | SMILES | time to flower abscission after treatment (wild-type tomato flowers) [h] | time flowers remained attached to the pedicel after treatment [1] | rate of leaf abscission compared with EIN3 over-expressing plants (TCTR1 antisense plants) | induction of leaf abscission (TCTR1 antisense plants)
1 | C=C [ethylene] | 24 | at least 5 days |  | 
2 | CCO [ethanol] |  |  | less rapid; also recorded: not as rapid | induced leaf abscission
3 | CC(C)CC[C@@H](O)[C@](C)(O)[C@H]1CC[C@@]2(O)C3=CC(=O)[C@]4(O)C[C@@H](O)[C@@H](O)C[C@]4(C)[C@H]3[C@H](O)C[C@]12C [muristeroneA] |  |  | less rapid; also recorded: not as rapid | induced leaf abscission

From US20050060772A1, “Regulation of ethylene sensitivity during leaf and flower abscission” (priority 2001, published 2005)
